Test [1] deals with EGFR (human) (UniProt P00533). The settings on record: a431.
For test [2], the target named is EGFR (human) (UniProt P00533). The settings on record: igrov-1.
Test [3] deals with EGFR (human) (UniProt P00533). To be noted: skov-3.
The target of another test is EGFR (mouse) (UniProt P00533). To be noted: nih3t3.
For another test, the target named is EGFR (UniProt P00533).
Test [4] addresses EGFR (human) (UniProt P00533). To be noted: a431. The source holds these as a separate data set.

Molecules are shown by their SMILES. “And” between values parts separate entries of the source, which are not always exact repeats. Equal entries are not always repeated. Bounds are passed on as bounds.

Chain of EGFR (P00533 whole entry, looked up): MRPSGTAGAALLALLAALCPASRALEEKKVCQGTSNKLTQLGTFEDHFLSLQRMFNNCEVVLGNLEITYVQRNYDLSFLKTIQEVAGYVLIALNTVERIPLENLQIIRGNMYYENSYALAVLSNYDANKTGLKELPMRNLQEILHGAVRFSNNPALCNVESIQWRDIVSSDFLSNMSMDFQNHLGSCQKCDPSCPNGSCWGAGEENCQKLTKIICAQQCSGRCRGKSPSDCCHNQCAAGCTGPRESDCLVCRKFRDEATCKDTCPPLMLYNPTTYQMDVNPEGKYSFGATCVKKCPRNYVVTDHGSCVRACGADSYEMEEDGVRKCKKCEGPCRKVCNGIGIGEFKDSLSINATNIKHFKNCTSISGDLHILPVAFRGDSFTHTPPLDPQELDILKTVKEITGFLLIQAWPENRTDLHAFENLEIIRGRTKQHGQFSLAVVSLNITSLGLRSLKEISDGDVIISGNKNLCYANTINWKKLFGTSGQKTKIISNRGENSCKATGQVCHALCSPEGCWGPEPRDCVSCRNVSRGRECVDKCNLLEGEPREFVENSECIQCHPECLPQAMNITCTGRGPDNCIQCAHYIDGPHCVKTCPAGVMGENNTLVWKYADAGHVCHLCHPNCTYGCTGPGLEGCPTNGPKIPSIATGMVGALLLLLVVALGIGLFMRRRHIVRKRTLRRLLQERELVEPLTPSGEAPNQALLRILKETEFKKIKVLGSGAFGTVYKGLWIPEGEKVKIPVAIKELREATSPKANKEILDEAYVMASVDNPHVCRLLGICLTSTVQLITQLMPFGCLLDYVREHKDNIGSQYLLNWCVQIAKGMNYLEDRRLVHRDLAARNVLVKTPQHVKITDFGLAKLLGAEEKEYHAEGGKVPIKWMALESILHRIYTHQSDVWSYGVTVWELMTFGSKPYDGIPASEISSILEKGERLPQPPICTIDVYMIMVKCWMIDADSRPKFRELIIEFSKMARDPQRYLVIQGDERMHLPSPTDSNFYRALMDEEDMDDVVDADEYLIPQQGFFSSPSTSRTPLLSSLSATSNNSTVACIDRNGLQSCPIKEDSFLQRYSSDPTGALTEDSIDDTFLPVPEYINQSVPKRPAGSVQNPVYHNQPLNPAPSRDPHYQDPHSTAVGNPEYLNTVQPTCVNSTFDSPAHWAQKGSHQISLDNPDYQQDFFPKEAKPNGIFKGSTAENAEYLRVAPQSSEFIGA
Chain of EGFR (human) (P00533 whole entry, looked up): as above

For the molecule `CC1=CCC[C@]23O[C@H]2[C@@H](OC3=O)C2=C(C1)C(=O)C(O)=CC2=O`, the IC50 at EGFR (human) [1] is 0.1 µM; at EGFR (human) [2] it was 0.8 µM; at EGFR (human) [3], 1 µM; with EGFR (mouse) it was 0.02 µM; against EGFR, 5.5 µM.

As to `CC1=CCC[C@]23O[C@H]2[C@@H](OC3=O)C2=C(C1)C(=O)C=CC2=O`, the IC50 is 3.6 µM against EGFR (human) [1]; 6.1 µM against EGFR (human) [2]; 21.9 µM against EGFR (human) [3]; 27 µM on EGFR; 100 µM and > 100 µM on EGFR (human) [4].

`CC1=CCC[C@]23O[C@H]2[C@@H](OC3=O)c2c(O)ccc(O)c2C1`: the concentration for half-maximal inhibition (IC50) on EGFR turned out to be 26 µM.

Consider `CC(=O)Oc1ccc(OC(C)=O)c2c1CC(C)=CCC[C@]13O[C@H]1[C@H]2OC3=O`, for which the 50% inhibitory concentration (IC50) at EGFR (human) [1] was 15.8 µM; against EGFR (human) [2], 22.4 µM; at EGFR (human) [3], 41.2 µM; with EGFR (mouse), 8.3 µM; on EGFR (human) [4], 22 µM and 100 µM.

For the molecule `COc1ccc(OC)c2c1CC(C)=CCC[C@]13O[C@H]1[C@H]2OC3=O`, the concentration for half-maximal inhibition (IC50) against EGFR (human) [1], on EGFR (human) [2] and against EGFR (human) [3] was above 100 µM throughout.

(Values after the Kinase Knowledgebase extract (Sharma et al. 2016).)
